Experimental data: patent US10426850B2, “Collagen mimetic peptides for targeting collagen strands for in vitro and in vivo imaging and therapeutic use” (The Johns Hopkins University, priority 2011, dated 2019)

Assay: Circular dichroism spectra and thermal melting of CMPs
Format: physicochemical
Protocol: Circular dichroism spectroscopy. CD spectra were collected on JASCO 715 spectrophotometer equipped with a JASCO PTC-348 WI temperature controller and quartz cells (0.1 mm path length). CMP solutions (320 μL, 150 μM in 1×PBS) were stored at 4° C. for at least 24 hours before measurement. For photo-decaging, samples were exposed to 365 nm UV light for at least 30 minutes before the 4° C. incubation. The thermal melting studies were performed by measuring the ellipticity at 225 nm with 60° C./hr heating rate. Raw CD signal was normalized to mean residue ellipticity based on the peptide's length and concentration (Biopolymers 95:94-104 (2011)). Melting temperatures (Tm) were determined by fitting the mean residue ellipticity to a two-state model (Org Lett 8:4735-4738 (2006)). To measure the refolding kinetics, CMP solution was thermally denatured at 75° C. for 10 minutes in a cuvette and rapidly quenched to 25° C. in an ice-water bath, after which the CD signal at 225 nm was observed over time at 25° C. The CD spectra of intact and MMP-1 cleaved type I collagen (FIG. 12) was measured in 90 μg/mL protein solutions in 20 mM acetic acid buffer at 22° C. The 37° C. thermal stability profile (FIG. 2E, inset) was generated by monitoring the ellipticity at 222 nm immediately after transferring the cuvette to a temperature controlled cuvette holder pre-set to 37° C. The Tm values reported in this study are approximately 10° C. higher than the equilibrium Tm due to high heating rate (60° C./hr) (Biopolymers 73:682-688 (2004)).
Synthesis of fluorescently labeled collagen mimetic peptides. Non-caged CMPs were synthesized using Fmoc-mediated solid-phase chemistry by manual or automated synthesis as described previously.2,4 The caged NB(GPO)9 (SEQ ID NO: 12) was prepared by introducing Fmoc(N-o-nitrobenzyl)Gly-OH (synthesized according to Tatsu et al. 2,5) in the middle of the standard solid-phase peptide synthesis. The Hyp residue following the NBGly was conjugated using 9 molar equiv of Fmoc-Hyp(tBu)-OH, 8.8 molar equiv of PyBroP, and 20 molar equiv of DIPEA for over 24 hr to overcome the low reactivity caused by the steric hindrance of the NB cage group. The remaining sequence including the GGG spacer was completed by HBTU chemistry, followed by on-resin labeling with 6 molar equivalent of CF or TAMRA activated by 6 molar equivalent of PyAOP for over 24 hr. The full length fluorescent CMPs were cleaved from resin by treating the resin with TFA/TIS/H2O (95:2.5:2.5) for 3 hr and the cleaved peptide was purified by reverse phase HPLC on a Vydac C18 column using a linear gradient mixture of water (0.1% TFA) and acetonitrile (0.1% TFA) (5-45% acetonitrile gradient in 40 min). The purified peptides were analyzed by MALDI-TOF MS (FIG. 27): m/z calculated 2975.1 [M+Na+] for CF(GPO)9 (SEQ ID NO: 10), found 2975.0 [M+Na+]; m/z calculated 2975.1 [M+Na+] for ^SG9P9O9 (SEQ ID NO: 5), found 2973.5 [M+Na+]; m/z calculated 3110.2 [M+Na+] for CF^NB(GPO)9 (SEQ ID NO: 4), found 3109.4 [M+Na+]; m/z calculated 2975.1 [M+Na+] for CF(GPO)9 (SEQ ID NO: 10) [CF^NB(GPO)9 (SEQ ID NO: 4) after UV decaging], found 2974.1 [M+Na+]; m/z calculated 3142.3 [M+H+] for TAMRA-NB(GPO)9 (SEQ ID NO: 12), found 3141.4 [M+H+]; m/z calculated 3007.2 [M+H+] for TAMRA-(GPO)9 (SEQ ID NO: 15), [TAMRA-NB(GPO)9 (SEQ ID NO: 12) after decaging], found 3006.3 [M+H+]. CD spectra and CD melting curves of the labeled CMPs were acquired in PBS solutions using a JASCO 715 CD spectrophotometer. The solutions were incubated for at least 24 hours at 4° C. prior to CD experiment to ensure folding (FIG. 28).

What does the source list for CF-GGG-(GPO)4^NBGPO(GPO)4 [CF^NB(GPO)9]?
Tm (CD melting curve, triple helix) (after UV exposure (photo-decaged), heating rate 60° C./hr, Tm about 10° C. higher than equilibrium Tm): 75 °C; triple helical folding capacity (CD melting) (after UV exposure / photo-cleavage of NB cage): regain its full triple helical folding capacity; triple helical folding capacity (CD melting) (caged, before UV exposure): completely suppressed the CMP's ability to fold into a triple helix

Which “melting temperature (Tm), CD melting curve” value (non-caged peptide in PBS, CD at 225 nm, 1° C./min heating rate) does the source give for CF-GGG-(GPO)9 [CF(GPO)9] here?
The value was 75 °C.

Which “triple helical folding capacity (CD melting)” value (sequence-scrambled peptide) does the source give for “CF-GGG-PGOGPGPOPOGOGOPPGOOPGGOOPPG [CF^SG9P9O9, reference compound]” here?
Its value is “lack of triple helical structure”.
